Legend:
[1] = target: GDP-bound KRAS wild-type protein (Homo sapiens, UniProt P01116); experiment: Binding to KRAS by surface plasmon resonance (SPR), Single Cycle Kinetics; details: SPR, Single Cycle Kinetics, GDP-bound KRAS wild-type protein; read-out: KRAS KD
[2] = target: GDP-bound NRAS wild-type protein (Homo sapiens, UniProt P01111); experiment: Binding to NRAS by surface plasmon resonance (SPR), Single Cycle Kinetics; details: SPR, GDP-bound NRAS wild-type protein vs GDP-bound KRAS wild-type protein
[3] = target: GDP-bound HRAS wild-type protein (Homo sapiens, UniProt P01112); experiment: Binding to HRAS by surface plasmon resonance (SPR), Single Cycle Kinetics; details: SPR, GDP-bound HRAS wild-type protein vs GDP-bound KRAS wild-type protein
GDP-bound HRAS wild-type protein, sequence (P01112 whole entry): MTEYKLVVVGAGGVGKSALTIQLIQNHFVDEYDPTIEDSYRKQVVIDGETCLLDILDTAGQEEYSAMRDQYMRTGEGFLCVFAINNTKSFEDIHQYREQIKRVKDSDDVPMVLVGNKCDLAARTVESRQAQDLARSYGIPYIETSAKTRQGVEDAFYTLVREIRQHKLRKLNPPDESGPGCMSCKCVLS

GDP-bound KRAS wild-type protein, sequence (P01116 whole entry): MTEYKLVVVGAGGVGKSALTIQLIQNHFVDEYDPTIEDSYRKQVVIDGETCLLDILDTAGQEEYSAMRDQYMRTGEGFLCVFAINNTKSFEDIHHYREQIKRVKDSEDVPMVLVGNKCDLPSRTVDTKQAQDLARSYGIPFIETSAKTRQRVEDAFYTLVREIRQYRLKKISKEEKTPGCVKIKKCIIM
GDP-bound NRAS wild-type protein, sequence (P01111 whole entry): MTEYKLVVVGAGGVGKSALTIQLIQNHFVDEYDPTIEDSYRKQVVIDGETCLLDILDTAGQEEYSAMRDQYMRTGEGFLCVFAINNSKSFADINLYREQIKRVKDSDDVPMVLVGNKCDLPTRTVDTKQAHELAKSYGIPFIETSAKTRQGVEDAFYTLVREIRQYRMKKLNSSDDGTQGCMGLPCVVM

Structure (SMILES)	Kd [1] [nM]	NRAS/KRAS (ratio of KD value for NRAS to KD value for KRAS) [2]	HRAS/KRAS (ratio of KD value for HRAS to KD value for KRAS) [3]
CCO[C@@H]1C[C@H]2C(=O)NC3(CCC3)C(=O)N(C)[C@@H](C3CCCC3)C(=O)N(C)[C@H](C(=O)N(C)C)CC(=O)N(C)[C@@H](CC(F)F)C(=O)N[C@@H]([C@@H](C)CC)C(=O)N(C)CC(=O)N(C)[C@H]3C/C=C\CCN(C3=O)[C@@H](Cc3ccc(C(F)(F)F)cc3)C(=O)N(C)CC(=O)N[C@@H](CCc3cc(F)c(C(F)(F)F)c(F)c3)C(=O)N2C1 [PP1120, (2S,8S,12R,14S,20S,23S,27S,30S,36S,38Z)-20-cyclopentyl-27-(2,2-difluoroethyl)-8-[2-[3,5-difluoro-4-(trifluoromethyl)phenyl]ethyl]-12-ethoxy-N,N,4,19,22,26,32,35-octamethyl-30-[(1S)-1-methylpropyl]-3,6,9,15,18,21,25,28,31,34,42-undecaoxo-2-[[4-(trifluoromethyl)phenyl]methyl]spiro[1,4,7,10,16,19,22,26,29,32,35-undecazatricyclo[34.5.1.0^10,14]dotetracont-38-ene-17,1′-cyclobutane]-23-carboxamide]	0.042	A (a compound having 10 or more and less than 20 is denoted as A)	A (a compound having 10 or more and less than 20 is denoted as A)
CCO[C@@H]1C[C@H]2C(=O)NC3(CCC3)C(=O)N(C)[C@@H](C3CCCC3)C(=O)N(C)[C@H](C(=O)N(C)C)CC(=O)N(C)[C@@H](CCC(F)F)C(=O)N[C@@H]([C@@H](C)CC)C(=O)N(C)CC(=O)N(C)[C@H]3C/C=C\CCN(C3=O)[C@@H](Cc3ccc(C(F)(F)F)cc3)C(=O)N(C)CC(=O)N[C@@H](CCc3cc(F)c(C(F)(F)F)c(F)c3)C(=O)N2C1 [PP1121, (2S,8S,12R,14S,20S,23S,27S,30S,36S,38Z)-20-cyclopentyl-27-(3,3-difluoropropyl)-8-[2-[3,5-difluoro-4-(trifluoromethyl)phenyl]ethyl]-12-ethoxy-N,N,4,19,22,26,32,35-octamethyl-30-[(1S)-1-methylpropyl]-3,6,9,15,18,21,25,28,31,34,42-undecaoxo-2-[[4-(trifluoromethyl)phenyl]methyl]spiro[1,4,7,10,16,19,22,26,29,32,35-undecazatricyclo[34.5.1.0^10,14]dotetracont-38-ene-17,1′-cyclobutane]-23-carboxamide]	0.049	A (a compound having 10 or more and less than 20 is denoted as A)	A (a compound having 10 or more and less than 20 is denoted as A)
CCO[C@@H]1C[C@H]2C(=O)NC3(CCC3)C(=O)N(C)[C@@H](C3CCCC3)C(=O)N(C)[C@H](C(=O)N(C)C)CC(=O)N(C)[C@@H](CCC(=O)N(C)C)C(=O)N[C@@H]([C@@H](C)CC)C(=O)N(C)CC(=O)N(C)[C@H]3C/C=C\CCN(C3=O)[C@@H](Cc3ccc(C(F)(F)F)cc3)C(=O)N(C)CC(=O)N[C@@H](CCc3cc(F)c(C(F)(F)F)c(F)c3)C(=O)N2C1 [PP1122]	0.047	A (a compound having 10 or more and less than 20 is denoted as A)	B (a compound having 3 or more and less than 10 is denoted as B)
CCO[C@@H]1C[C@H]2C(=O)NC3(CCC3)C(=O)N(C)[C@@H](C3CCCC3)C(=O)N(C)[C@H](C(=O)N(C)C)CC(=O)N(C)[C@@H](Cc3cccs3)C(=O)N[C@@H]([C@@H](C)CC)C(=O)N(C)CC(=O)N(C)[C@H]3C/C=C\CCN(C3=O)[C@@H](Cc3ccc(C(F)(F)F)cc3)C(=O)N(C)CC(=O)N[C@@H](CCc3cc(F)c(C(F)(F)F)c(F)c3)C(=O)N2C1 [PP1123, (2S,8S,12R,14S,20S,23S,27S,30S,36S,38Z)-20-cyclopentyl-8-[2-[3,5-difluoro-4-(trifluoromethyl)phenyl]ethyl]-12-ethoxy-N,N,4,19,22,26,32,35-octamethyl-30-[(1S)-1-methylpropyl]-3,6,9,15,18,21,25,28,31,34,42-undecaoxo-27-(2-thienylmethyl)-2-[[4-(trifluoromethyl)phenyl]methyl]spiro[1,4,7,10,16,19,22,26,29,32,35-undecazatricyclo[34.5.1.0^10,14]dotetracont-38-ene-17,1′-cyclobutane]-23-carboxamide]	0.072	A (a compound having 10 or more and less than 20 is denoted as A)	B (a compound having 3 or more and less than 10 is denoted as B)

More lines, main results first:

Kd [1] [nM]	Structure (SMILES)	NRAS/KRAS (ratio of KD value for NRAS to KD value for KRAS) [2]	HRAS/KRAS (ratio of KD value for HRAS to KD value for KRAS) [3]
0.056	CCO[C@@H]1C[C@H]2C(=O)NC3(CCC3)C(=O)N(C)[C@@H](C3CCCC3)C(=O)N(C)[C@H](C(=O)N(C)C)CC(=O)N(C)[C@@H](CC(F)(F)F)C(=O)N[C@@H]([C@@H](C)CC)C(=O)N(C)CC(=O)N(C)[C@H]3C/C=C\CCN(C3=O)[C@@H](Cc3ccc(C(F)(F)F)cc3)C(=O)N(C)CC(=O)N[C@@H](CCc3cc(F)c(C(F)(F)F)c(F)c3)C(=O)N2C1 [PP1124, (2S,8S,12R,14S,20S,23S,27S,30S,36S,38Z)-20-cyclopentyl-8-[2-[3,5-difluoro-4-(trifluoromethyl)phenyl]ethyl]-12-ethoxy-N,N,4,19,22,26,32,35-octamethyl-30-[(1S)-1-methylpropyl]-3,6,9,15,18,21,25,28,31,34,42-undecaoxo-27-(2,2,2-trifluoroethyl)-2-[[4-(trifluoromethyl)phenyl]methyl]spiro[1,4,7,10,16,19,22,26,29,32,35-undecazatricyclo[34.5.1.0^10,14]dotetracont-38-ene-17,1′-cyclobutane]-23-carboxamide]	A (a compound having 10 or more and less than 20 is denoted as A)	B (a compound having 3 or more and less than 10 is denoted as B)
0.07	CCO[C@@H]1C[C@H]2C(=O)NC3(CCC3)C(=O)N(C)[C@@H](C3CCCC3)C(=O)N(C)[C@H](C(=O)N(C)C)CC(=O)N(C)[C@@H](CC3CCCCC3)C(=O)N[C@@H]([C@@H](C)CC)C(=O)N(C)CC(=O)N(C)[C@H]3C/C=C\CCN(C3=O)[C@@H](Cc3ccc(C(F)(F)F)cc3)C(=O)N(C)CC(=O)N[C@@H](CCc3cc(F)c(C(F)(F)F)c(F)c3)C(=O)N2C1 [PP1125, (2S,8S,12R,14S,20S,23S,27S,30S,36S,38Z)-27-(cyclohexylmethyl)-20-cyclopentyl-8-[2-[3,5-difluoro-4-(trifluoromethyl)phenyl]ethyl]-12-ethoxy-N,N,4,19,22,26,32,35-octamethyl-30-[(1S)-1-methylpropyl]-3,6,9,15,18,21,25,28,31,34,42-undecaoxo-2-[[4-(trifluoromethyl)phenyl]methyl]spiro[1,4,7,10,16,19,22,26,29,32,35-undecazatricyclo[34.5.1.0^10,14]dotetracont-38-ene-17,1′-cyclobutane]-23-carboxamide]	A (a compound having 10 or more and less than 20 is denoted as A)	A (a compound having 10 or more and less than 20 is denoted as A)
